Source: patent publication US6685840B2, “Method for determining the dissolution rate of a solid water treatment product” (Ondeo Nalco Company, priority 2002, dated 2004)

Test: Dissolution (release) rate of the ingredients of a solid water treatment tablet in standard cooling water
Type: physicochemical
Design: key: *: value was below detection limits for this moiety
Source text: After the solid water treatment product has been formed it must be tested to determine its dissolution rate in water. Test water that is formulated to closely match the type of water found in the industrial water system of interest is provided. For example, “standard” test water for cooling water in a cooling tower typically has the following features: 60 ppm Ca^2+, 18 ppm Mg^2+, 134 ppm HCO3^−, 53 ppm Cl^− and 72 ppm SO4^2−. A typical scale formation test for a model or simulation boiler typically has these concentrations of scaling contaminants in the boiler water; 10 ppm Calcium as CaCO3, 5 ppm Magnesium as CaCO3, 5 ppm silica as SiO2. Alkalinity such as caustic (NaOH) is added in sufficient quantity to maintain a pH of typically between 10.0 and 11.0 in the boiler water.
In order to determine the dissolution rate of the solid water treatment product the solid water treatment product is placed in the test water and allowed to dissolve. A fluorometer is provided and the fluorescent signal of the Fluorescent Tracer present in the solid water treatment product is measured using the fluorometer. The fluorescent signal is measured at regular intervals.
A tablet of solid cooling water treatment product of Formulation 1, {27.6% benzotriazole, 70.4% 1-hydroxyethylidene-1,1-diphosphonic acid and 2% 1,3,6,8-pyrenetetrasulfonic acid, sodium salt} is made. The tablet weighs 0.9081 grams. The tablet is placed in standard cooling water {60 ppm Ca^2+, 18 ppm Mg^2+, 134 ppm […] , 53 ppm Cl^31 and 72 ppm SO4^2−} and the dissolution rate of each ingredient in the table is measured. The dissolution rate of each ingredient present is measured using analytical techniques suitable for analyzing for each ingredient. The dissolution rate of the benzotriazole (abbreviated “BZT”) is measured using fluorometric analytical techniques, known in the art of analyzing triazoles. The dissolution rate of 1-hydroxyethylidene-1,1-diphosphonic acid (abbreviated “HEDP”) is measured using standard “colorimetric determination” analytical techniques, known in the art of analyzing for diphosphonic acids. The dissolution rate of the 1,3,6,8-pyrenetetrasulfonic acid, sodium salt (abbreviated “PTSA”) is measured using fluorometric analytical techniques.
The results of this test are shown in Table 1 Release rates for each ingredient are given in milligrams (‘mg”) per minute (“min.”).
The same tablet was made as was made in Example 1, except that this time, the tablet was coated with a polyethylene oxide material with a molecular weight of approximately 15,000 such that the final weight of finished tablet was 1.411 grams. The dissolution rate of the three ingredients in this tablet were determined, using the same analytical techniques as in Example 1.

[1] = Example 1 uncoated tablet of Formulation 1 (0.9081 g), standard cooling water, time 0 minutes
[2] = Example 1 uncoated tablet of Formulation 1, standard cooling water, time 1 minutes
[3] = Example 1 uncoated tablet of Formulation 1, standard cooling water, time 5 minutes
[4] = Example 1 uncoated tablet of Formulation 1, standard cooling water, time 10 minutes
[5] = Example 1 uncoated tablet of Formulation 1, standard cooling water, time 15 minutes
[6] = Example 1 uncoated tablet of Formulation 1, standard cooling water, time 30 minutes
[7] = Example 1 uncoated tablet of Formulation 1, standard cooling water, time 60 minutes
[8] = Example 1 uncoated tablet of Formulation 1, standard cooling water, time 130 minutes
[9] = Example 2 tablet coated with polyethylene oxide (1.411 g), time 0 minutes
[10] = Example 2 tablet coated with polyethylene oxide, time 5 minutes
[11] = Example 2 tablet coated with polyethylene oxide, time 15 minutes
[12] = Example 2 tablet coated with polyethylene oxide, time 30 minutes
[13] = Example 2 tablet coated with polyethylene oxide, time 40 minutes
[14] = Example 2 tablet coated with polyethylene oxide, time 50 minutes
[15] = Example 2 tablet coated with polyethylene oxide, time 61 minutes, in mg/min
[16] = Example 2 tablet coated with polyethylene oxide, time 75 minutes, in mg/min
[17] = Example 2 tablet coated with polyethylene oxide, time 110 minutes, in mg/min
[18] = Example 2 tablet coated with polyethylene oxide, time 180 minutes, in mg/min

Row | SMILES | Release Rate [1] | Release Rate [2] | Release Rate [3] | Release Rate [4] | Release Rate [5] | Release Rate [6] | Release Rate [7] | Release Rate [8] | Release Rate [9] | Release Rate [10] | Release Rate [11] | Release Rate [12] | Release Rate [13] | Release Rate [14] | Release Rate [15] | Release Rate [16] | Release Rate [17] | Release Rate [18] | other results
1 | c1ccc2[nH]nnc2c1 [BZT, benzotriazole] | * | * | 8.75 mg per min. | 13.8 mg per min. | 11.4 mg per min. | 2.167 mg per min. | 0.5 mg per min. | 0.493 mg per min. | * | * | * | * | 0.2 mg/min | 2.6 mg/min | 5.545 | 4.393 | 0.829 | 0.236 | 
2 | CC(O)(P(=O)(O)O)P(=O)(O)O [HEDP, 1-hydroxyethylidene-1,1-diphosphonic acid] | * | * | 10.5 mg per min. | 20 mg per min. | 11.4 mg per min. | 0.933 mg per min. | 1.03 mg per min. | 0.0143 mg per min. | * | * | * | * | 1.2 mg/min | 2.55 mg/min | 8.091 | 4.893 |  | 0.329 | Release Rate (Example 2 tablet coated with polyethylene oxide, time 110 minutes): 1.7 mg/min
3 | O=S(=O)([O-])c1cc(S(=O)(=O)[O-])c2ccc3c(S(=O)(=O)[O-])cc(S(=O)(=O)[O-])c4ccc1c2c43.[Na+].[Na+].[Na+].[Na+] [PTSA, 1,3,6,8-pyrenetetrasulfonic acid, sodium salt] | * | * | 0.5925 mg per min. | 0.98 mg per min. | 0.5 mg per min. | 0.143 mg per min. | * | * | * | * | * | * |  |  |  | 0.190 | 0.0571 | 0.00493 | Release Rate (Example 2 tablet coated with polyethylene oxide, time 40 minutes, in mg/min): 0.052; Release Rate (Example 2 tablet coated with polyethylene oxide, time 50 minutes, in mg/min): 0.121; Release Rate (Example 2 tablet coated with polyethylene oxide, time 61 minutes): 0.33 mg/min
